Measurements as given in ChEMBL document CHEMBL1697692, “Developing structure-activity relationships for the prediction of hepatotoxicity” (Chem Res Toxicol, 2010).
Where a name gives a salt, the structure may show the parent alone.

Test system: Hepatotoxicity
Test: Literature-mined public compounds from Greene et al multi-species hepatotoxicity modelling dataset

| Molecule | Hepatotoxicity |
| --- | --- |
| CC(=O)c1ccc(S(=O)(=O)NC(=O)NC2CCCCC2)cc1 [ACETOHEXAMIDE] | HH: Evidence of human hepatotoxicity |
| CC1=C(C(=O)O)N2C(=O)[C@@H](NC(=O)[C@H](N)C3=CCC=CC3)[C@H]2SC1 [CEPHRADINE] | NE: No evidence of hepatotoxicity in any species |
| CC(O)(CS(=O)(=O)c1ccc(F)cc1)C(=O)Nc1ccc(C#N)c(C(F)(F)F)c1 (stereo not drawn) [BICALUTAMIDE] | HH: Evidence of human hepatotoxicity |
| CCOc1ccc(NC(C)=O)cc1 [PHENACETIN] | HH: Evidence of human hepatotoxicity |
| CC(C)c1cccc(C(C)C)c1O [PROPOFOL] | NE: No evidence of hepatotoxicity in any species |
| C=CCO [ALLYL ALCOHOL] | HH: Evidence of human hepatotoxicity |
| CC(=N)S [THIOACETAMIDE] | AH: Evidence for animal hepatotoxicity but not tested in humans |
| CC(C)NCC(O)COc1cccc2[nH]ccc12 (stereo not drawn) [PINDOLOL] | NE: No evidence of hepatotoxicity in any species |
| CC(N)C(O)c1ccccc1.Cl (stereo not drawn) [PHENYLPROPANOLAMINE HYDROCHLORIDE] | NE: No evidence of hepatotoxicity in any species |
| Cc1ccccc1C(OCCN(C)C)c1ccccc1.O=C(O)CC(O)(CC(=O)O)C(=O)O (stereo not drawn) [ORPHENADRINE CITRATE] | NE: No evidence of hepatotoxicity in any species |
| CCOC(=O)C(C)(C)Oc1ccc(Cl)cc1 [CLOFIBRATE] | HH: Evidence of human hepatotoxicity |
| CNC(=O)Oc1ccc2c(c1)[C@]1(C)CCN(C)[C@@H]1N2C [PHYSOSTIGMINE] | NE: No evidence of hepatotoxicity in any species |
| C#CCN(C)Cc1ccccc1 [PARGYLINE] | NE: No evidence of hepatotoxicity in any species |
| CO[C@@]1(NC(=O)C2SC(=C(C(N)=O)C(=O)O)S2)C(=O)N2C(C(=O)O)=C(CSc3nnnn3C)CS[C@@H]21 (stereo partly drawn) [CEFOTETAN] | NE: No evidence of hepatotoxicity in any species |
| CCCCc1oc2ccccc2c1C(=O)c1cc(I)c(OCCN(CC)CC)c(I)c1 [AMIODARONE] | HH: Evidence of human hepatotoxicity |
| C[C@@H](CO)NC(=O)[C@@H]1C=C2c3cccc4[nH]cc(c34)C[C@H]2N(C)C1.O=C(O)/C=C\C(=O)O [ERGONOVINE MALEATE] | NE: No evidence of hepatotoxicity in any species |
| CC(C)NNC(=O)c1ccncc1 [IPRONIAZID] | HH: Evidence of human hepatotoxicity |
| CCO[C@@H](Cc1ccc(OCCN2c3ccccc3Oc3ccccc32)cc1)C(=O)O [RAGAGLITAZAR] | NE: No evidence of hepatotoxicity in any species |
| NC(CS/C(Cl)=C/Cl)C(=O)O (stereo not drawn) | AH: Evidence for animal hepatotoxicity but not tested in humans |
| CC(C)(Oc1ccc(CCNC(=O)c2ccc(Cl)cc2)cc1)C(=O)O [BEZAFIBRATE] | NE: No evidence of hepatotoxicity in any species |
| C=C[C@H]1C[N@@]2CC[C@H]1C[C@@H]2[C@@H](O)c1ccnc2ccc(OC)cc12 [QUINIDINE] | HH: Evidence of human hepatotoxicity |

| Molecule | Hepatotoxicity |
| --- | --- |
| COc1ccc2c(c1)c(CC(=O)O)c(C)n2C(=O)c1ccc(Cl)cc1 [INDOMETHACIN] | HH: Evidence of human hepatotoxicity |
| Oc1ncc(N(CCCl)CCCl)c(O)n1 [URACIL MUSTARD] | HH: Evidence of human hepatotoxicity |
| CN1CCN(CCCN2c3ccccc3Sc3ccc(C(F)(F)F)cc32)CC1 [TRIFLUOPERAZINE] | HH: Evidence of human hepatotoxicity |
| O=C1O[C@H]([C@@H](O)CO)C(O)=C1O [ASCORBIC ACID] | NE: No evidence of hepatotoxicity in any species |
| CCOC(=O)[C@H](CCc1ccccc1)N[C@@H](C)C(=O)N1Cc2ccccc2C[C@H]1C(=O)O | HH: Evidence of human hepatotoxicity |
| COc1ccc(C[C@H](N)C(=O)N[C@H]2[C@@H](O)[C@H](n3cnc4c(N(C)C)ncnc43)O[C@@H]2CO)cc1 [PUROMYCIN] | AH: Evidence for animal hepatotoxicity but not tested in humans |
| C=CC(O)CC#N (stereo not drawn) | NE: No evidence of hepatotoxicity in any species |
| CN(C)c1ccc(O)c2c1C[C@H]1C[C@H]3[C@H](N(C)C)C(O)=C(C(N)=O)C(=O)[C@@]3(O)C(O)=C1C2=O.Cl [MINOCYCLINE HYDROCHLORIDE] | HH: Evidence of human hepatotoxicity |
| CC(=O)CC(c1ccccc1)c1c(O)c2ccccc2oc1=O (stereo not drawn) [WARFARIN] | WE: Weak evidence (<10 case reports) of human hepatotoxicity |
| CNCCC=C1c2ccccc2CCc2ccccc21.Cl [NORTRIPTYLINE HYDROCHLORIDE] | HH: Evidence of human hepatotoxicity |
| CCN(CC)CCCC(C)Nc1ccnc2cc(Cl)ccc12.O=P(O)(O)O.O=P(O)(O)O (stereo not drawn) [CHLOROQUINE PHOSPHATE] | WE: Weak evidence (<10 case reports) of human hepatotoxicity |
| Cl[C@H]1[C@H](Cl)[C@@H](Cl)[C@@H](Cl)[C@H](Cl)[C@H]1Cl (stereo in doubt; form 1) [LINDANE] | NE: No evidence of hepatotoxicity in any species |
| COc1cc(N)c(Cl)cc1C(=O)NC1CCN(CCCOc2ccc(F)cc2)CC1OC (stereo not drawn) [CISAPRIDE] | NE: No evidence of hepatotoxicity in any species |
| CN1CCCCC1CCN1c2ccccc2Sc2ccc([S+](C)[O-])cc21.O=S(=O)(O)c1ccccc1 (stereo not drawn) [MESORIDAZINE BESYLATE] | HH: Evidence of human hepatotoxicity |
| CCN(CC)CC(=O)Nc1c(C)cccc1C [LIDOCAINE] | NE: No evidence of hepatotoxicity in any species |
| C[n+]1ccc(-c2cc[n+](C)cc2)cc1 | AH: Evidence for animal hepatotoxicity but not tested in humans |
| CCOC(=O)c1ncn2c1CN(C)C(=O)c1cc(F)ccc1-2 [FLUMAZENIL] | NE: No evidence of hepatotoxicity in any species |
| C=CCOC=O [ALLYL FORMATE] | HH: Evidence of human hepatotoxicity |
| CC[C@H]1OC(=O)[C@H](C)[C@@H](O[C@H]2C[C@@](C)(OC)[C@@H](O)[C@H](C)O2)[C@H](C)[C@@H](O[C@@H]2O[C@H](C)C[C@H](N(C)C)[C@H]2O)[C@](C)(O)C[C@@H](C)C(=O)[C@H](C)[C@@H](O)[C@]1(C)O [ERYTHROMYCIN] | WE: Weak evidence (<10 case reports) of human hepatotoxicity |
| CC[C@@H](CO)NC(=O)[C@@H]1C=C2c3cccc4c3c(cn4C)C[C@H]2N(C)C1.O=C(O)/C=C\C(=O)O [METHYSERGIDE MALEATE] | NE: No evidence of hepatotoxicity in any species |
| O=C(O)c1ccccc1Nc1cccc(C(F)(F)F)c1 [FLUFENAMIC ACID] | WE: Weak evidence (<10 case reports) of human hepatotoxicity |

| Molecule | Hepatotoxicity |
| --- | --- |
| Clc1ccc(COC(Cn2ccnc2)c2ccc(Cl)cc2Cl)c(Cl)c1 (stereo not drawn) [MICONAZOLE] | NE: No evidence of hepatotoxicity in any species |
| CN(C)[C@@H]1C(O)=C(C(N)=O)C(=O)[C@@]2(O)C(O)=C3C(=O)c4c(O)cccc4[C@@](C)(O)[C@H]3C[C@@H]12 [TETRACYCLINE] | HH: Evidence of human hepatotoxicity |
| Nc1nc(Cl)nc2c1ncn2[C@H]1C[C@H](O)[C@@H](CO)O1 [CLADRIBINE] | NE: No evidence of hepatotoxicity in any species |
| CC(C)OC(=O)C(C)(C)Oc1ccc(C(=O)c2ccc(Cl)cc2)cc1 [FENOFIBRATE] | HH: Evidence of human hepatotoxicity |
| CCN(CC)CCOc1ccc(/C(=C(/Cl)c2ccccc2)c2ccccc2)cc1.O=C(O)CC(O)(CC(=O)O)C(=O)O [ENCLOMIPHENE CITRATE] | HH: Evidence of human hepatotoxicity |
| CN1C[C@H](C(=O)N[C@]2(C)O[C@@]3(O)[C@@H]4CCCN4C(=O)[C@H](Cc4ccccc4)N3C2=O)C=C2c3cccc4[nH]cc(c34)C[C@H]21.CN1C[C@H](C(=O)N[C@]2(C)O[C@@]3(O)[C@@H]4CCCN4C(=O)[C@H](Cc4ccccc4)N3C2=O)C=C2c3cccc4[nH]cc(c34)C[C@H]21.O=C(O)C(O)C(O)C(=O)O [ERGOTAMINE TARTRATE] | NE: No evidence of hepatotoxicity in any species |
| CC(C)NCC(O)COc1ccc(CC(N)=O)cc1 (stereo not drawn) [ATENOLOL] | NE: No evidence of hepatotoxicity in any species |
| O=c1[nH]c2ccccc2n1C1CCN(CCCC(c2ccc(F)cc2)c2ccc(F)cc2)CC1 [PIMOZIDE] | NE: No evidence of hepatotoxicity in any species |
| COC(=O)C1=C(C)NC(C)=C(C(=O)OCC(C)C)C1c1ccccc1[N+](=O)[O-] (stereo not drawn) [NISOLDIPINE] | NE: No evidence of hepatotoxicity in any species |
| CCO.C[C@H]1c2cccc(O)c2C(=O)C2=C(O)[C@]3(O)C(=O)C(C(N)=O)=C(O)[C@@H](N(C)C)[C@@H]3[C@@H](O)[C@@H]21.Cl.O | HH: Evidence of human hepatotoxicity |
| BISMUTH SUBSALICYLATE | NE: No evidence of hepatotoxicity in any species |
| CCN(CC)CCNc1ccc(CO)c2sc3ccccc3c(=O)c12 [HYCANTHONE] | HH: Evidence of human hepatotoxicity |
| CC(=O)OCC[N+](C)(C)C.[Cl-] [ACETYLCHOLINE CHLORIDE] | NE: No evidence of hepatotoxicity in any species |
| Nc1ccc(S(=O)(=O)NC(=O)c2ccccc2)cc1 [SULFABENZAMIDE] | NE: No evidence of hepatotoxicity in any species |
| CN[C@@H](C)[C@@H](O)c1ccccc1.Cl [PSEUDOEPHEDRINE HYDROCHLORIDE] | NE: No evidence of hepatotoxicity in any species |
| CC12CC3CC(C)(C1)CC(N)(C3)C2 [MEMANTINE] | NE: No evidence of hepatotoxicity in any species |
| CCSCC[C@H](N)C(=O)O (stereo in doubt; form 1) [ETHIONINE] | HH: Evidence of human hepatotoxicity |
| COCc1c(C(C)C)nc(C(C)C)c(/C=C/[C@@H](O)C[C@@H](O)CC(=O)O)c1-c1ccc(F)cc1 [CERIVASTATIN] | HH: Evidence of human hepatotoxicity |
| CCCCC(CC)COC(=O)C=Cc1ccc(OC)cc1 (stereo not drawn) [OCTINOXATE] | HH: Evidence of human hepatotoxicity |
| C[C@H](CCC(=O)O)[C@H]1CC[C@H]2[C@@H]3[C@@H](O)C[C@@H]4C[C@H](O)CC[C@]4(C)[C@H]3CC[C@]12C (stereo in doubt; form 1) [URSODIOL] | HH: Evidence of human hepatotoxicity |
| Cc1cn([C@H]2C=C[C@@H](CO)O2)c(=O)[nH]c1=O [STAVUDINE] | HH: Evidence of human hepatotoxicity |
